Measured values: ChEMBL document CHEMBL1201862, “PubChem BioAssay data set” (2004)
Active and inactive are the calls of the source.

Legend:
[1] = target: T1, Ubiquitin-conjugating enzyme E2 N (Homo sapiens, UniProt P61088); format: functional
T1 sequence (P61088 whole entry): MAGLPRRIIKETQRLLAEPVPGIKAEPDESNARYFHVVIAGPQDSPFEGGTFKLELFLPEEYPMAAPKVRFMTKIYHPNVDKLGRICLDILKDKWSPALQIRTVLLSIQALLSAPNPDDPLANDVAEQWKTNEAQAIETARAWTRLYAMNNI

[2] = microbe, parasite or virus in culture; format: functional; conditions: Mycobacterium tuberculosis
[3] = target: T2, Bcl-2-related protein A1 (Mus musculus, UniProt Q07440); format: functional;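 note: confirmatory dose–response counterscreen on Bfl-1, used to check hits from a UBC13 polyubiquitin inhibitor campaign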
T2 sequence (Q07440 whole entry): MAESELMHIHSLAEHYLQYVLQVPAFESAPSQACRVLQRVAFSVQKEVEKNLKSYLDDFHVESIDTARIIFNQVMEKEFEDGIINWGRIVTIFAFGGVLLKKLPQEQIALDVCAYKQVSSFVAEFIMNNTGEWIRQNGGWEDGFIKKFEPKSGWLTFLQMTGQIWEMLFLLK

[4] = Luminescence Cell-Based Dose Retest to Confirm Inhibitors of Cancer Stem Cells. [Related pubchem assays (depositor defined):AID2717, AID2721]; format: functional; conditions: Homo sapiens
[5] = target: T1, Ubiquitin-conjugating enzyme E2 N; format: functional; remark: listed apart in the source
[6] = system: INS1; experiment: beta cell apoptosis inhibitors, cytokine rescue, dose response, luminescence, retest (AID 449756); format: functional, cell-based; conditions: Rattus norvegicus;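 note: cell death triggered by IL-1 beta plus TNF-alpha plus IFN-gamma mixture; protective hits raise ATP signal compared with cytokine alone wells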
[7] = system: BJ; experiment: cytotoxicity toward BJ-TERT fibroblasts, dose response, cell-based, RAS-independent, luminescence (AID 1933); format: functional; conditions: Homo sapiens
[8] = cytotoxicity toward DRD oncogenic fibroblasts, dose response, cell-based, non-viral oncogenic, luminescence (AID 1934); format: functional; conditions: Homo sapiens
[9] = system: BJ; experiment: cells; format: functional, cell-based; conditions: Homo sapiens
[10] = mammalian cell cytotoxicity, dose response, cytotoxicity control, plate reader, cherry-pick samples (AID 504397); format: functional, cell-based
[11] = system: BJ; experiment: cytotoxicity toward BJ-TERT-LT-ST fibroblasts, dose response, cell-based, RAS-independent, luminescence (AID 1935); format: functional; conditions: Homo sapiens;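 note: BJ fibroblasts immortalized with TERT plus LT and ST oncogenes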
[12] = target: CAAX prenyl protease 2 (Saccharomyces cerevisiae S288c, UniProt Q03530); format: biochemical
[13] = target: Mitogen-activated protein kinase 10 (Homo sapiens, UniProt P53779); experiment: Dose response biochemical screening assay for inhibitors of c-Jun N-Terminal Kinase 3 (JNK3). [Related pubchem assays: 746 ]
[14] = system: H4; experiment: Luminescence Cell-Based Dose Response HTS to Identify Activators of 5'UTR Stem-Loop Driven Prion Protein mRNA Translation in H4 Neuroglioblastoma Cells. [Related pubchem assays: 1829 (Project Summary), 1814 (Primary HTS)]; format: functional; conditions: Homo sapiens
[15] = Luminescence Cell-Based Dose Response HTS to Identify Activators of Luciferase Translation or Activity in H4 […] Cells. [Related pubchem assays: 1829 (Project Summary), 1814 (Primary HTS)]; format: functional
[16] = target: Intestinal-type alkaline phosphatase (Mus musculus, UniProt P24822); experiment: PubChem AID 488785; format: functional
[17] = target: T3, Alkaline phosphatase, tissue-nonspecific isozyme (Homo sapiens, UniProt P05186); experiment: TNAP enzyme inhibition by screening hits, dose response, selectivity assay for mouse IAP inhibitor project, biochemical, human TNAP, uHTS hits (AID 488906); format: functional
T3 sequence (P05186 whole entry): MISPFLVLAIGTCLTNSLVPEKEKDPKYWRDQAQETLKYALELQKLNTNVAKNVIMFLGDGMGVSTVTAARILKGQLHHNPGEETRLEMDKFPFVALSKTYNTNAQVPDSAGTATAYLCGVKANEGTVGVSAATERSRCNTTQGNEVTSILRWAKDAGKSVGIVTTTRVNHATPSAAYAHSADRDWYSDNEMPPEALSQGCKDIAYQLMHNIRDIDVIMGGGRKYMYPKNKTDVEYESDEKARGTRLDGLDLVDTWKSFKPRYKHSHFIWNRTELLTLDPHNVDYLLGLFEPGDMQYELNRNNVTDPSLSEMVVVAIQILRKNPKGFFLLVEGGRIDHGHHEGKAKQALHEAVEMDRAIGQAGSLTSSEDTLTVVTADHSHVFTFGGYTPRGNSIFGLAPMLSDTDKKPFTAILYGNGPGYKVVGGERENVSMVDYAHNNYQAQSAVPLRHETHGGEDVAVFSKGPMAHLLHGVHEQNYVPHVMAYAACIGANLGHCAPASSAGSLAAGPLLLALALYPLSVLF

[18] = Luminescence Cell-Based Dose Response to Identify Activators of 5'UTR Stem-Loop Driven Prion Protein mRNA Translation in H4-C Neuroglioblastoma Cells. [Related pubchem assays: 1829 (Project Summary), 1814 (Primary HTS)]; format: functional
[19] = Luminescence Cell-Based Dose Response to Identify Activators of Luciferase Translation or Activity in H4-C Neuroglioblastoma Cells. [Related pubchem assays: 1829 (Project Summary), 1814 (Primary HTS)]; format: functional
[20] = Luminescence Cell-Based Dose Confirmation to Identify Activators of 5'UTR Stem-Loop Driven Alpha-Synuclein mRNA Translation in H4 Neuroglioblastoma Cells. [Related pubchem assays: 1829 (Project Summary), 1814 (Primary HTS)]; format: functional
[21] = target: Intestinal-type alkaline phosphatase (Homo sapiens, UniProt P09923); experiment: inhibition of human intestinal alkaline phosphatase – biochemical, dose response (AID 488876); format: functional
[22] = target: T4, Kappa-type opioid receptor (Homo sapiens, UniProt P41145); experiment: KOR agonist analogs, arrestin-GFP redistribution, SAR follow-up, imaging, image-based, set 3 (AID 488833); format: functional
[23] = target: T4, Kappa-type opioid receptor; experiment: SAR analysis of small molecule agonists of the kappa opioid receptor via a luminescent beta-arrestin assay - Set 3. [Related pubchem assays (depositor defined):AID1777, AID1785, AID1786, AID1966, AID2133, AID2136, AID2284, AID2500]; format: functional
[24] = target: Delta-type opioid receptor (Homo sapiens, UniProt P41143); experiment: SAR Analysis of Agonists of the DOR Receptor using an Image-Based Assay - Set 3. [Related pubchem assays (depositor defined):AID1777, AID1786]; format: functional
[25] = target: Mu-type opioid receptor (Homo sapiens, UniProt P35372); experiment: SAR Analysis of Agonists of the MOR Receptor using an Image-Based Assay - Set 3. [Related pubchem assays (depositor defined):AID1777, AID1785, AID1786, AID1966, AID2133, AID2136, AID2284, AID2285, AID2352]; format: functional
Sequence of Mu-type opioid receptor (P35372 whole entry): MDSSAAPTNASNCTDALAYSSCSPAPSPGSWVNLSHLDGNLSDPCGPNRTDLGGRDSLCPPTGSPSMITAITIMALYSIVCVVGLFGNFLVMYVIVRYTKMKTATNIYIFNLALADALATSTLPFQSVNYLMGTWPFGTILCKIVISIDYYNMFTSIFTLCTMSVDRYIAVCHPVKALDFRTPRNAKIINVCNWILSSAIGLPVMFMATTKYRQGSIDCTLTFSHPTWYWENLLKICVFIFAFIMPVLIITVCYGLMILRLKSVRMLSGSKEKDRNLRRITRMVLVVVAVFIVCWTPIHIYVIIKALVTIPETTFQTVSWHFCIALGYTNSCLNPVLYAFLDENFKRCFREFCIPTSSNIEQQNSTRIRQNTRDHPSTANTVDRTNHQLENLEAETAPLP

T4 sequence (P41145 whole entry): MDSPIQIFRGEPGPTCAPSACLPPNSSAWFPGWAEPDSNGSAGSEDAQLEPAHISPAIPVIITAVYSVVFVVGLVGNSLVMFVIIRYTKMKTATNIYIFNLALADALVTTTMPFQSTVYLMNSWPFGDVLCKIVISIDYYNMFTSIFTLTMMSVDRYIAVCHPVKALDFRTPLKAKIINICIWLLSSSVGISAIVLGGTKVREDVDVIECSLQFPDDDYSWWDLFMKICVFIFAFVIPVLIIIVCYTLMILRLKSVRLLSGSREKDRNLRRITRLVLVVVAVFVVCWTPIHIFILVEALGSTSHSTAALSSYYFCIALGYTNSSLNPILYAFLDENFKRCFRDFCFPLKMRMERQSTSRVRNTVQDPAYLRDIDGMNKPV
Sequence of Mitogen-activated protein kinase 10 (P53779 whole entry): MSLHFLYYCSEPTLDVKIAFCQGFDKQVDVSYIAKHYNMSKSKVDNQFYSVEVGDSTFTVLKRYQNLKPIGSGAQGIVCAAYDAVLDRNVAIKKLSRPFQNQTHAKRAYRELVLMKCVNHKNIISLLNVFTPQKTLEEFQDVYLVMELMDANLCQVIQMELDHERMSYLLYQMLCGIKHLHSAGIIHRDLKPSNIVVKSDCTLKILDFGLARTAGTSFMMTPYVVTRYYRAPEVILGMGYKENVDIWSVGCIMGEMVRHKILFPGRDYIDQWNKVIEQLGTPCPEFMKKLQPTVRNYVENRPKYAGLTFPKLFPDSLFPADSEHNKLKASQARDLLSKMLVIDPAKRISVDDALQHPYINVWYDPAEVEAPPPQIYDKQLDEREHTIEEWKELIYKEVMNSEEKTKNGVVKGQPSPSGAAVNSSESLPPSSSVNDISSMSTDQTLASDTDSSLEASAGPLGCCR
Sequence of Intestinal-type alkaline phosphatase (Mus musculus, UniProt P24822) (P24822 whole entry): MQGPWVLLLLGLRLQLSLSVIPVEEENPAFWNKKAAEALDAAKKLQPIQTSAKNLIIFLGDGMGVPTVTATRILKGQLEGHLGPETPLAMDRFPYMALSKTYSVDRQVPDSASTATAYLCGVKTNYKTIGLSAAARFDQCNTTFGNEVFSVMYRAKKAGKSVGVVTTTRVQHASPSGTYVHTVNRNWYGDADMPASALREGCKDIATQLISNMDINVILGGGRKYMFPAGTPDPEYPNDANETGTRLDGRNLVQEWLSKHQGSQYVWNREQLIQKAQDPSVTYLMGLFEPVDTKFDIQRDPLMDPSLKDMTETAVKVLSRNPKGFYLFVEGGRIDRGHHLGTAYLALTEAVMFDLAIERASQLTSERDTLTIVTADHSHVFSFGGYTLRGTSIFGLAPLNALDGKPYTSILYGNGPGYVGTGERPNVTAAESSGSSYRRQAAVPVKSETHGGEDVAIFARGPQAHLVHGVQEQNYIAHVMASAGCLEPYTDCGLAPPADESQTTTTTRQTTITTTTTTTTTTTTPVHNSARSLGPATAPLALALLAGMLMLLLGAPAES
Sequence of Intestinal-type alkaline phosphatase (Homo sapiens, UniProt P09923) (P09923 whole entry): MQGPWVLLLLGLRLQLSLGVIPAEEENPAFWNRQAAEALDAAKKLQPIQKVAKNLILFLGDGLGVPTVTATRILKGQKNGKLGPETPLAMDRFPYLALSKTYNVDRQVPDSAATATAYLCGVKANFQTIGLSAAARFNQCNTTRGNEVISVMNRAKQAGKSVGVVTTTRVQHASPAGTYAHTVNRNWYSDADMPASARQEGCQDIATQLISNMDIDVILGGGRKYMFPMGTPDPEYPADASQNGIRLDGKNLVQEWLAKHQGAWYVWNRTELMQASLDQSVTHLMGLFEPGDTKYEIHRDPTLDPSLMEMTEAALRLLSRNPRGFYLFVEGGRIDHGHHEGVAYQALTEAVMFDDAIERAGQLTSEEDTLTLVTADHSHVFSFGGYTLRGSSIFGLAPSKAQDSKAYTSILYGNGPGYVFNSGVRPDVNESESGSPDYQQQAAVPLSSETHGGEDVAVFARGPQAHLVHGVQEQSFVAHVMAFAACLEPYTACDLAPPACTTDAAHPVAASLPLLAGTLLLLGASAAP
Sequence of Delta-type opioid receptor (P41143 whole entry): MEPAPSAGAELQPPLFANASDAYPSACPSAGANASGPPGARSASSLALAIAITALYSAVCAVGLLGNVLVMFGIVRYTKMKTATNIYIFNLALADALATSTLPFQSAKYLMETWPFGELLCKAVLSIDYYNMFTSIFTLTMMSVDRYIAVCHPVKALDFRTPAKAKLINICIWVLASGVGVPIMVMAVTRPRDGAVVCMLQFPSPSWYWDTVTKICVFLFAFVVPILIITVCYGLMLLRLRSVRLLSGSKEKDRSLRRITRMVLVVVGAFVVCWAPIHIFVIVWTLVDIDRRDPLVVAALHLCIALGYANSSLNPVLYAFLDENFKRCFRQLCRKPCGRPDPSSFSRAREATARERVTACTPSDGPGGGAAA
Sequence of CAAX prenyl protease 2 (Q03530 whole entry): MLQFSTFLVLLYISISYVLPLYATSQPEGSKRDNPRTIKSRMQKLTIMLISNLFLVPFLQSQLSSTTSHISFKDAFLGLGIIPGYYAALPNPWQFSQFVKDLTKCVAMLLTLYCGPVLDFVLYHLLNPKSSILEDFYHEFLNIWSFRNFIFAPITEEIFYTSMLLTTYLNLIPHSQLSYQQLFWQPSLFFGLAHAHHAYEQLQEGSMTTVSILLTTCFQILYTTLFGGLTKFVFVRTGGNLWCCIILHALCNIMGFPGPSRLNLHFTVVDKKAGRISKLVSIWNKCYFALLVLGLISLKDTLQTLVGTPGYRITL

COc1ccc2cc1Oc1ccc(cc1)C[C@H]1c3c(cc(OC)c4c3Oc3c(ccc5c3[C@H](C2)N(C)CC5)O4)CCN1C
IC50 [1]: 16 µM (active) | CC50 [2]: 6.25 µM (active) | IC50 [3]: > 20 µM (inactive) | AC50 [4]: 3.56 µM (active) | IC50 [5]: 12.2 µM (active) | AC50 [6]: 8.02 µM (active)

Cc1cccc(OCCCN2C(=O)C(=O)c3cc(C)ccc32)c1
EC50 [7]: 5.08 µM (active) | EC50 [8]: 25.9 µM (active) | EC50 [9]: > 150 µM (not active) | AC50 [10]: 42.4 µM (active) | EC50 [11]: 11.1 µM (inconclusive) | AC50 [12]: 2.77 µM (active)

OCCCN1c2ccccc2Nc2nnc(-c3ccccc3)cc21
IC50 [13]: > 31 µM (not active) | EC50 [14]: 1.97 µM (active) | EC50 [15]: < 0.1 µM (inconclusive) | IC50 [16]: 10.3 µM (active) | IC50 [17]: > 100 µM (inactive) | EC50 [18]: 0.549 µM (active) | EC50 [19]: > 12 µM (not active) | EC50 [20]: 0.424 µM (active) | IC50 [21]: > 100 µM (inactive)

FC(F)(F)c1cc(CSc2nnc(-c3ccccn3)n2Cc2ccco2)ccc1Cl
EC50 [22]: 0.456 µM (active) | EC50 [23]: 0.504 µM (active) | EC50 [24]: > 64 µM (inactive) | EC50 [25]: > 32 µM (inactive)
